Assay results reported in ChEMBL document CHEMBL4364299, “Discovery of a Potent Kelch-Like ECH-Associated Protein 1-Nuclear Factor Erythroid 2-Related Factor 2 (Keap1-Nrf2) Protein-Protein Interaction Inhibitor with Natural Proline Structure as a Cytoprotective Agent against Acetaminophen-Induced Hepatotoxicity” (J Med Chem, 2019).
Activity calls are given as the source filed them. The rule behind the calls is not given here.

How the values were obtained:
[1] = target: T1, Nuclear factor erythroid 2-related factor 2 (Homo sapiens) (UniProt Q16236); assay: Activation of Nrf2 in human L02 cells assessed as increase in NEFL2L mRNA expression measured after 12 hrs by trizol reagent based qRT-PCR analysis; format: cell-based
T1 sequence (whole entry): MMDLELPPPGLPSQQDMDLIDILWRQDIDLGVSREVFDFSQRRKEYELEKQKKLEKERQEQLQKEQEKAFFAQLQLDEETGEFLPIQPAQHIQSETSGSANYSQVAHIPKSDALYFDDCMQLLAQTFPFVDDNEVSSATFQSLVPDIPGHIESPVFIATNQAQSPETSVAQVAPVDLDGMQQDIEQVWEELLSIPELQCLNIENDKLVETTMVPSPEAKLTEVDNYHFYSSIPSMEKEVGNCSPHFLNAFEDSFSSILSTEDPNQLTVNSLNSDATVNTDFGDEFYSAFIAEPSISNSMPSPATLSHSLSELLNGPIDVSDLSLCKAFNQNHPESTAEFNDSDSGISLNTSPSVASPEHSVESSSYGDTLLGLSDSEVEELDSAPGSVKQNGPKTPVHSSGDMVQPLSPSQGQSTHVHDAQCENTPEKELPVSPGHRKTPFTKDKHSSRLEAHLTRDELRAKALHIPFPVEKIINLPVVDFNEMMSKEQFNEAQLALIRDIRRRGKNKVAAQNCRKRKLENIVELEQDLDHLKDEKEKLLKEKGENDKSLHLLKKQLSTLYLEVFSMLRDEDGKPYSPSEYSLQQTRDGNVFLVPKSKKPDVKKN

[2] = target: T1, Nuclear factor erythroid 2-related factor 2 (Homo sapiens); assay: Activation of Nrf2 in human L02 cells assessed as increase in NQO-1 mRNA expression measured after 12 hrs by trizol reagent based qRT-PCR analysis; format: cell-based
[3] = target: T1, Nuclear factor erythroid 2-related factor 2 (Homo sapiens); assay: Activation of Nrf2 in human L02 cells assessed as increase in GCLM mRNA expression measured after 12 hrs by trizol reagent based qRT-PCR analysis; format: cell-based
[4] = target: T1, Nuclear factor erythroid 2-related factor 2 (Homo sapiens); assay: Activation of Nrf2 in human L02 cells assessed as increase in NEFL2L mRNA expression at 10 uM measured after 8 to 24 hrs by trizol reagent based qRT-PCR analysis; format: cell-based
[5] = target: T1, Nuclear factor erythroid 2-related factor 2 (Homo sapiens); assay: Activation of Nrf2 in human L02 cells assessed as increase in HO-1 mRNA expression at 10 uM measured after 8 to 24 hrs by trizol reagent based qRT-PCR analysis; format: cell-based
[6] = target: T1, Nuclear factor erythroid 2-related factor 2 (Homo sapiens); assay: Activation of Nrf2 in human L02 cells assessed as increase in NQO-1 mRNA expression at 10 uM measured after 8 to 24 hrs by trizol reagent based qRT-PCR analysis; format: cell-based
[7] = target: T1, Nuclear factor erythroid 2-related factor 2 (Homo sapiens); assay: Activation of Nrf2 in human L02 cells assessed as increase in GCLM mRNA expression at 10 uM measured after 8 to 24 hrs by trizol reagent based qRT-PCR analysis; format: cell-based
[8] = target: T1, Nuclear factor erythroid 2-related factor 2 (Homo sapiens); assay: Activation of Nrf2 in human L02 cells assessed as increase in NEFL2L expression measured after 12 hrs by Western blot analysis; format: cell-based
[9] = target: T1, Nuclear factor erythroid 2-related factor 2 (Homo sapiens); assay: Activation of Nrf2 in human L02 cells assessed as increase in HO-1 expression measured after 12 hrs by Western blot analysis; format: cell-based
[10] = target: T1, Nuclear factor erythroid 2-related factor 2 (Homo sapiens); assay: Activation of Nrf2 in human L02 cells assessed as increase in GCLM expression measured after 12 hrs by Western blot analysis; format: cell-based
[11] = target: T1, Nuclear factor erythroid 2-related factor 2 (Homo sapiens); assay: Activation of Nrf2 in human L02 cells assessed as increase in NQO-1 expression at 10 uM measured after 4 to 72 hrs hrs by Western blot analysis; format: cell-based
[12] = target: T1, Nuclear factor erythroid 2-related factor 2 (Homo sapiens); assay: Activation of Nrf2 in human L02 cells assessed as increase in GCLM expression at 10 uM measured after 4 to 72 hrs hrs by Western blot analysis; format: cell-based
L02 [13] = assay: Upregulation of NEFL2L expression in human L02 cells harboring Nrf2 siRNA at 10 uM measured after 10 hrs by Western blot analysis; format: functional, cell-based
[14] = target: T1, Nuclear factor erythroid 2-related factor 2 (Homo sapiens); assay: Activation of Nrf2 in human L02 cells harboring control siRNA assessed as increase in NEFL2L mRNA expression at 10 uM measured after 10 hrs by trizol reagent based qRT-PCR analysis; format: cell-based
[15] = target: T1, Nuclear factor erythroid 2-related factor 2 (Homo sapiens); assay: Activation of Nrf2 in human L02 cells harboring control siRNA assessed as increase in HO-1 mRNA expression at 10 uM measured after 10 hrs by trizol reagent based qRT-PCR analysis; format: cell-based
[16] = target: T1, Nuclear factor erythroid 2-related factor 2 (Homo sapiens); assay: Activation of Nrf2 in human L02 cells harboring control siRNA assessed as increase in NQO-1 mRNA expression at 10 uM measured after 10 hrs by trizol reagent based qRT-PCR analysis; format: cell-based
[17] = target: T1, Nuclear factor erythroid 2-related factor 2 (Homo sapiens); assay: Activation of Nrf2 in human L02 cells harboring control siRNA assessed as increase in GCLM mRNA expression at 10 uM measured after 10 hrs by trizol reagent based qRT-PCR analysis; format: cell-based
[18] = target: T1, Nuclear factor erythroid 2-related factor 2 (Homo sapiens); assay: Activation of Nrf2 in human L02 cells harboring control siRNA assessed as increase in HO-1 expression at 10 uM measured after 10 hrs by Western blot analysis; format: cell-based
L02 [19] = assay: Cytoprotective activity against APAP-induced oxidative stress in human L02 cells assessed as increase in GSH/GSSG ratio at 5 to 10 uM preincubated for 12 hrs followed by APAP stimulation and measured after 24 hrs; format: functional, cell-based
Mus musculus [20] = assay: (§1) Protection against APAP-induced hepatotoxicity in C57BL/6 mouse assessed as decrease in HO-1 expression in liver at 10 to 40 mg/kg, ip treated 2 hrs prior to 22 hrs starvation followed by APAP challenge and measured after 6 hrs by Dako/Mayer's hematoxylin staining-based immunohistochemical analysis; format: functional, organism-based
Mus musculus [21] = assay: Protection against APAP-induced hepatotoxicity in C57BL/6 mouse assessed as decrease in liver lymphocytes infiltration at 10 to 40 mg/kg, ip treated 2 hrs prior to 22 hrs starvation followed by APAP challenge and measured after 6 hrs by H and E staining-based light microscopic analysis; format: functional, organism-based
Mus musculus [22] = assay: Protection against APAP-induced hepatotoxicity in C57BL/6 mouse assessed as reduction in liver apoptosis at 10 to 40 mg/kg, ip treated 2 hrs prior to 22 hrs starvation followed by APAP challenge and measured after 6 hrs by TUNEL assay; format: functional, organism-based
Mus musculus [23] = assay: as §1, with “alpha-SMA” for “HO-1”; format: functional, organism-based
Mus musculus [24] = assay: Protection against APAP-induced hepatotoxicity in C57BL/6 mouse assessed as decrease in ALT level at 10 mg/kg, ip treated 2 hrs prior to 22 hrs starvation followed by APAP challenge and measured after 6 hrs; format: functional, organism-based
Mus musculus [25] = assay: Protection against APAP-induced hepatotoxicity in C57BL/6 mouse assessed as decrease in total bilirubin level at 10 mg/kg, ip treated 2 hrs prior to 22 hrs starvation followed by APAP challenge and measured after 6 hrs; format: functional, organism-based
L02 [26] = details: Homo sapiens, 5 to 10 uM
Description: Cytoprotective activity against APAP-induced hepatotoxicity in human L02 cells assessed as inhibition of IL1beta production at 5 to 10 uM preincubated for 12 hrs followed by APAP stimulation and measured after 24 hrs by ELISA

L02 [27] = details: Homo sapiens, 5 to 10 uM; remark: listed apart in the source
Description: Cytoprotective activity against APAP-induced hepatotoxicity in human L02 cells assessed as inhibition of TNFalpha production at 5 to 10 uM preincubated for 12 hrs followed by APAP stimulation and measured after 24 hrs by ELISA

L02 [28] = assay: cells; details: Homo sapiens, L02, read-out: Activity
Description: Cytoprotective activity against APAP-induced apoptosis in human L02 cells assessed as viable cells at 10 uM preincubated for 12 hrs followed by APAP addition and measured after 12 hrs by FITC-Annexin V/propidium iodide staining based flow cytometry (Rvb = 50.6%)

Q: `COc1ccc(S(=O)(=O)N(CC(=O)O)c2ccc(N3CCC[C@H]3C(=O)O)c3ccccc23)cc1` was tested. Which Activity [1] did it give?
A: Dose-dependent effect

Q: And the Activity [2]?
A: Dose-dependent effect

Q: What about the Activity [3] of the same molecule?
A: Dose-dependent effect

Q: What about the Activity [4] of the same molecule?
A: Active

Q: And the Activity [5]?
A: Active

Q: And the Activity [6]?
A: Active

Q: And the Activity [7]?
A: Active

Q: And the Activity [8]?
A: Dose-dependent effect

Q: What about the Activity [9] of the same molecule?
A: Dose-dependent effect

Q: What about the Activity [10] of the same molecule?
A: Dose-dependent effect

Q: And the Activity [11]?
A: Active

Q: What about the Activity [12] of the same molecule?
A: Active

Q: What about the Activity (L02 [13]) of the same molecule?
A: inactive

Q: What about the Activity [14] of the same molecule?
A: Active

Q: And the Activity [15]?
A: Active

Q: And the Activity [16]?
A: Active

Q: What about the Activity [17] of the same molecule?
A: Active

Q: And the Activity [18]?
A: Active

Q: And the Activity (L02 [19])?
A: Active

Q: And the Activity (Mus musculus [20])?
A: Active

Q: And the Activity (Mus musculus [21])?
A: Active

Q: And the Activity (Mus musculus [22])?
A: Active

Q: And the Activity (Mus musculus [23])?
A: Active

Q: What about the Activity (Mus musculus [24]) of the same molecule?
A: Active

Q: And the Activity (Mus musculus [25])?
A: Active

Q: What about the inhibition (L02 [26]) of the same molecule?
A: Active

Q: And the inhibition (L02 [27])?
A: Active

Q: What about the viability at 10 µM (L02 [28]) of the same molecule?
A: 76%
